The structures appear in SMILES notation.

Assay [1] has as its target T1, ER (Homo sapiens (Human), UniProt P03372). Briefly: In-cell western (ICW) ER degradation assay in MCF-7 cells. The class given is cell-based. The following applies: MCF7, 16 hrs; for DC50: ER degradation; for Dmax: MCF7, maximal ER degradation.
For another assay, the target named is CRBN/DDB1 (Homo sapiens (Human), UniProt Q96SW2). Briefly: HTRF binding assay to CRBN/DDB1. The following applies: read-out: CRBN HTRF IC50. The procedure: The binding potency was determined using HTRF assay technology (Perkin Elmer). Compounds were serially diluted in DMSO and 0.2 μL volume was transferred to white 384-well plate.
Sequence of CRBN/DDB1 (Q96SW2 whole entry): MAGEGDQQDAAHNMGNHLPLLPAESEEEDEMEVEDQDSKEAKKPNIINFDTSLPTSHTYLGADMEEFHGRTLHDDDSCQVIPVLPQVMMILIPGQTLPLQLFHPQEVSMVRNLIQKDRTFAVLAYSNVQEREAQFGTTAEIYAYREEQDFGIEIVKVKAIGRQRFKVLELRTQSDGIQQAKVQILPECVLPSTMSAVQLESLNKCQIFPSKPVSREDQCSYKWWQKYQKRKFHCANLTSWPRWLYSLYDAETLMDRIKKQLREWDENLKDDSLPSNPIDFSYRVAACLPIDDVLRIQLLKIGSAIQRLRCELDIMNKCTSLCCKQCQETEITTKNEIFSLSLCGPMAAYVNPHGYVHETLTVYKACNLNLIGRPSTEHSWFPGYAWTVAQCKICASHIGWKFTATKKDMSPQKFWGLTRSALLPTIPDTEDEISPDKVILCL
Sequence of CRBN/DDB1 (Q16531 whole entry partner): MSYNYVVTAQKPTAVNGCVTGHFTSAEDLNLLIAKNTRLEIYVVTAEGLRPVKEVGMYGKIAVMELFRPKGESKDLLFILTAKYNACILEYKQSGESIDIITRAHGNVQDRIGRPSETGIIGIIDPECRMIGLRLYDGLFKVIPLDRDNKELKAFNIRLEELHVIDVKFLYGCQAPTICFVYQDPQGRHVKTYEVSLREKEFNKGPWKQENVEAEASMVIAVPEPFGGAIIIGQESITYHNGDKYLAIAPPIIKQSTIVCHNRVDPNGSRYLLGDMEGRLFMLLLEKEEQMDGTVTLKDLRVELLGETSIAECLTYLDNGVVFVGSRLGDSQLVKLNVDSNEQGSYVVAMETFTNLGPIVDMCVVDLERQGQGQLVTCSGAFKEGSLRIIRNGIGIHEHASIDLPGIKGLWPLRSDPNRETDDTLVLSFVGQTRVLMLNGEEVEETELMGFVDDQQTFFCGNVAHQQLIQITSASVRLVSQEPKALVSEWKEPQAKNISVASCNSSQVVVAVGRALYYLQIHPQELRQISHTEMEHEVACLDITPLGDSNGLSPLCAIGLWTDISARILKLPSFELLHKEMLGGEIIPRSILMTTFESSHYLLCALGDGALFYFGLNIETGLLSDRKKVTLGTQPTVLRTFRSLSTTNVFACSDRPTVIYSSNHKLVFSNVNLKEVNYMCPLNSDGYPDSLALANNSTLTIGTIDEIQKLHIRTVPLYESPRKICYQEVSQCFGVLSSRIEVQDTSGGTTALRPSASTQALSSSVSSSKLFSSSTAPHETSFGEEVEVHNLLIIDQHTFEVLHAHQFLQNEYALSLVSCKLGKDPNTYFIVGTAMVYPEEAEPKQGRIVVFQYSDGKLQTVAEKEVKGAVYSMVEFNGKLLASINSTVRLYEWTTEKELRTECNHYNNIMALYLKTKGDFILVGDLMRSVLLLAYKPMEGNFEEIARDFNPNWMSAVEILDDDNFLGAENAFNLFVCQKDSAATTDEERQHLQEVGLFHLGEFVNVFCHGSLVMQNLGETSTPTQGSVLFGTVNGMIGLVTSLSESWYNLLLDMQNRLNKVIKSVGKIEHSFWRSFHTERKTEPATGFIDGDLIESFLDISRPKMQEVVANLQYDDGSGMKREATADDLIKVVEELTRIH
In general terms: TR-FRET usually uses a lanthanide donor and a delayed reading to cut background.

Assay [2] has as its target T1, ER. As to the kind of experiment: In-cell western (ICW) ER degradation assay in T47D cells. The format is cell-based. Particulars: 16 hrs; for DC50: ER degradation.
The next assay has as its system T47D cells. As to the kind of experiment: cells. Particulars: Homo sapiens, 144 h, read-out: T47D Proliferation IC50 (nM).
In a further assay the test system is MCF-7 cells. Briefly: cells. The following applies: Homo sapiens, MCF7, 144 h, read-out: MCF7 Proliferation IC50 (nM).
A further assay has as its target ERα_LBD(GST) (Homo sapiens (Human), UniProt P03372). Briefly: LanthaScreen TR-FRET ERα competitive binding assay. The following applies: read-out: ERα HTRF IC50. The procedure: • 1. ERα_LBD(GST) protein: 4 nM • 2. Tb Anti-GST: 2 nM • 3. Fluormone ES2 Green tracer: 3 nM • 4. Incubation time: 60 min • 5. DMSO: 1% • 6. Assay buffer: Adding 1M DTT to Nuclear receptor Buffer K for final 5 mM DTT. • 7. ZPE: 1% DMSO • 8. HPE: 1 μM ARV_471 • 9. LanthaScreen® TR-FRET ERα Competitive Binding Assay (ThermoFisher, #A15887)
• 1) Cherry pick 2 μL 10 mM compound stock to column 1 of a 384 intermediate plate • 2) Add 18 μL DMSO to column 1 to dilute compound to 1 mM. • 3) Transfer 10 μL 1 mM compound to column 1 of a LDV plate. • 2) Add 6 μl DMSO to column 2-10 of the LDV plate. • 3) Compounds undergo 3-fold serial dilution (3 μL+6 μL) in DMSO. • 4) Transfer 120 nL compound solution to assay plate. • ZPE: 120 nL 100% DMSO
Prepare complete nuclear receptor buffer K by adding 1 M DTT to nuclear receptor buffer K for a final concentration of 5 mM DTT. Complete nuclear receptor buffer K must be prepared fresh daily. Prepare 2× protein solution using complete nuclear receptor buffer K containing 8 nM ERα_LBD(GST) and 4 nM Tb Anti-GST. Then, prepare 2× Fluormone ES2 Green tracer (6 nM) using complete nuclear receptor buffer K. Add 6 μL 2× Fluormone ES2 green tracer into a compound plate (PerkinElmer 6008289) by dragonfly with one-tips-addition. Subsequently, add 6 μL 2× protein solution into the plate. Briefly and gently mix the 384-well plate on a plate shaker and incubate at room temperature protected from light for 60 min. The plate is sealed with a cover to minimize evaporation. Read the plate at wavelengths of 520 nm and 495 nm. Calculate the TR-FRET ratio by dividing the emission signal at 520 nm by the emission signal at 495 nm. Generate a binding curve by plotting the emission ratio vs. the log [ligand]. To determine the IC50 value, fit the data using XL-fit for a sigmoidal dose-response.

Sequence of ERα_LBD(GST) (P03372 311-547): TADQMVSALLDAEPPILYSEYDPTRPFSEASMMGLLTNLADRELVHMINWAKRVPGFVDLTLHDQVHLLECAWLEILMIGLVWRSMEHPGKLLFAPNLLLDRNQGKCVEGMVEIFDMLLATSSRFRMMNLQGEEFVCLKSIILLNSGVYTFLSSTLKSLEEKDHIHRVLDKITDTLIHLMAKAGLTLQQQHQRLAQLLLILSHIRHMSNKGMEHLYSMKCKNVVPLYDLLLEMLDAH
T1 sequence (P03372 whole entry): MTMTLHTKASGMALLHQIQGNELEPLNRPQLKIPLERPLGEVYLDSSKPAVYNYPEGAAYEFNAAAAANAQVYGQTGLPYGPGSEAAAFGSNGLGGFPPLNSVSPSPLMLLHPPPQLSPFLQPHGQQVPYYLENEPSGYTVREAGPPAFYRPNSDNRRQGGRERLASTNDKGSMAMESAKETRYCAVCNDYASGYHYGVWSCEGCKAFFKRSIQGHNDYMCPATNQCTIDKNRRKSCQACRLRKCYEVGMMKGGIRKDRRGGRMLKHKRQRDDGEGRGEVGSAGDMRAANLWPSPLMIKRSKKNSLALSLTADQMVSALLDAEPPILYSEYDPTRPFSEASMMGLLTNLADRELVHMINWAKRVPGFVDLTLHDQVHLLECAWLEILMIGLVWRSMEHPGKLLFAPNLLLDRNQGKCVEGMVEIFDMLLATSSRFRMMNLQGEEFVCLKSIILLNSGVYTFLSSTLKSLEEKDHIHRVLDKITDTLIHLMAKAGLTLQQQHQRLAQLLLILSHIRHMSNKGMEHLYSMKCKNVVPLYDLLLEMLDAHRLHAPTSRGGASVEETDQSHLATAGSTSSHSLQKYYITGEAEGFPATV

`O=C1CC[C@@H](N2Cc3cc4c(cc3C2=O)OC[C@@H]2CN(CC3CC5(CCN(c6ccc([C@H]7c8ccc(O)cc8OC[C@H]7c7ccccc7)cc6)CC5)C3)CCN42)C(=O)N1` [Compound A96, (R)-3-((S)-3-((7-(4-((3R,4S)-7-hydroxy-3-phenylchroman-4-yl)phenyl)-7-azaspiro[3.5]nonan-2-yl)methyl)-8-oxo-1,2,3,4,4a,5,8,10-octahydro-9H-pyrazino[1′,2′:4,5][1,4]oxazino[2,3-f]isoindol-9-yl)piperidine-2,6-dione]: the half-maximal degradation concentration (DC50) on ER [1] and at ER [2] was less than 1 nM in each case. The Dmax on ER [1] and at ER [2] (maximal ER degradation) was 50 to 75% each time. Besides, the IC50 was 50 to 500 nM at CRBN/DDB1, less than 50 nM with T47D cells and less than 50 nM in the assay on MCF-7 cells.
For the compound `O=C1CC[C@@H](N2Cc3cc4c(cc3C2=O)OC[C@H]2CN(CC3CCC5(CC3)CN(c3ccc([C@@H]6c7ccc(O)cc7OC[C@@H]6c6ccccc6)cc3)C5)CCN42)C(=O)N1` [Compound A119, (R)-3-((R)-3-((2-(4-((3S,4R)-7-hydroxy-3-phenylchroman-4-yl)phenyl)-2-azaspiro[3.5]nonan-7-yl)methyl)-8-oxo-1,2,3,4,4a,5,8,10-octahydro-9H-pyrazino[1′,2′:4,5][1,4]oxazino[2,3-f]isoindol-9-yl)piperidine-2,6-dione], the DC50 at ER [1] and on ER [2] was 1 to 10 nM throughout. The Dmax on ER [1] and on ER [2] (maximal ER degradation) was 50 to 75% in each case. Besides, the IC50 at CRBN/DDB1 is 500 to 5000 nM; in the assay with T47D cells, 500 to 5000 nM; with MCF-7 cells, 50 to 500 nM.
On to `COc1cc(N2CCC(CN3CCN(c4ccc(C(=O)NC5CCC(=O)NC5=O)nc4)CC3)CC2)c(F)cc1[C@H]1c2ccc(O)cc2OC[C@H]1c1ccccc1` (stereo partly drawn) [Compound A110, N-(2,6-dioxopiperidin-3-yl)-5-(4-((1-(2-fluoro-4-((3R,4R)-7-hydroxy-3-phenylchroman-4-yl)-5-methoxyphenyl)piperidin-4-yl)methyl)piperazin-1-yl)picolinamide], for which the DC50 on ER [1] and on ER [2] was less than 1 nM in each case. The “MCF7 Dmax %” value at ER [1] (maximal ER degradation) is “B (“B”: >50% and <75%)”. Moreover, the IC50 at CRBN/DDB1 was more than 5000 nM; on ERα_LBD(GST) it was less than 5 nM. In addition, the “T47D Dmax %” value on ER [2] (maximal ER degradation) was “B (“B”: >50% and <75%)”.
`O=C1CCC(N2Cc3c(ccc4c3OCC43CCN(CC4CC5(CCN(c6ccc([C@@H]7c8ccc(O)cc8OC[C@@H]7c7ccccc7)cc6)CC5)C4)CC3)C2=O)C(=O)N1` (stereo partly drawn) [Compound A113, 3-(1′-((7-(4-((3S,4R)-7-hydroxy-3-phenylchroman-4-yl)phenyl)-7-azaspiro[3.5]nonan-2-yl)methyl)-6-oxo-6,8-dihydro-2H,7H-spiro[furo[2,3-e]isoindole-3,4′-piperidin]-7-yl)piperidine-2,6-dione]: the DC50 at ER [1] and at ER [2] was less than 1 nM each time. The Dmax at ER [1] and on ER [2] (maximal ER degradation) was 50 to 75% throughout. The IC50 at CRBN/DDB1 was less than 50 nM; in the assay with T47D cells it was more than 5000 nM; with MCF-7 cells it was less than 50 nM.
Regarding `O=C1CC[C@@H](N2Cc3cc4c(cc3C2=O)OC[C@H]2CN(CC3CC5(CCN(c6ccc([C@@H]7c8ccc(O)cc8OC[C@@H]7c7ccccc7)cc6)CC5)C3)CCN42)C(=O)N1` [Compound A95, (R)-3-((R)-3-((7-(4-((3S,4R)-7-hydroxy-3-phenylchroman-4-yl)phenyl)-7-azaspiro[3.5]nonan-2-yl)methyl)-8-oxo-1,2,3,4,4a,5,8,10-octahydro-9H-pyrazino[1′,2′:4,5][1,4]oxazino[2,3-f]isoindol-9-yl)piperidine-2,6-dione], the DC50 on ER [1] and on ER [2] was 1 to 10 nM in each case. Further, the greatest degradation seen (Dmax) on ER [1] and on ER [2] (maximal ER degradation) was 50 to 75% throughout. Besides, the IC50 at CRBN/DDB1 is 500 to 5000 nM; in the assay on T47D cells, less than 50 nM; in the assay on MCF-7 cells it was 50 to 500 nM.
With `O=C1CCC(N2Cc3cc4c(cc3C2=O)CN(C(=O)CN2CCC3(CC2)CN(c2ccc([C@@H]5c6ccc(O)cc6OC[C@@H]5c5ccccc5)cc2)C3)C4)C(=O)N1` (stereo partly drawn) [Compound A49, 3-(6-(2-(2-(4-((3S,4R)-7-hydroxy-3-phenylchroman-4-yl)phenyl)-2,7-diazaspiro[3.5]nonan-7-yl)acetyl)-1-oxo-3,5,6,7-tetrahydropyrrolo[3,4-f]isoindol-2(1H)-yl)piperidine-2,6-dione], the 50% degradation concentration (DC50) on ER [1] and at ER [2] was 1 to 10 nM each time. Moreover, the Dmax on ER [1] and on ER [2] (maximal ER degradation) was 50 to 75% each time. In addition, the IC50 at CRBN/DDB1 was 50 to 500 nM; at ERα_LBD(GST), less than 5 nM.
Turning to `O=C1CC[C@@H](Nc2ccc(C3CCN(CC4CCC5(CC4)CN(c4ccc([C@H]6c7ccc(O)cc7OC[C@H]6c6ccccc6)cc4)C5)CC3)cc2)C(=O)N1` (single isomer, unassigned) [Compound A140], the DC50 on ER [1] and on ER [2] was less than 1 nM each time. The Dmax on ER [1] and on ER [2] (maximal ER degradation) was 50 to 75% each time. In addition, the IC50 at CRBN/DDB1 was 500 to 5000 nM; on ERα_LBD(GST) it was less than 5 nM.
Turning to `O=C1CCC(N2Cc3c(ccc4c3OC[C@H]3CN(CC5CCN(c6ncc([C@H]7c8ccc(O)cc8OC[C@H]7c7ccccc7)cn6)CC5)CCN43)C2=O)C(=O)N1` (single isomer, unassigned) [Compound A35], the DC50 at ER [1] and on ER [2] was 1 to 10 nM in each case. The Dmax at ER [1] was in the range of 25 to 50%; on ER [2] (maximal ER degradation), 50 to 75%. Besides, the IC50 is 50 to 500 nM on CRBN/DDB1 and less than 5 nM at ERα_LBD(GST).
With `O=C1CCC(N2Cc3cc4c(cc3C2=O)CN(C(=O)C2CCN(C3CCN(c5ccc([C@@H]6c7ccc(O)cc7OC[C@@H]6c6ccccc6)cc5)CC3)CC2)C4)C(=O)N1` (single isomer, unassigned) [Compound A81], the DC50 on ER [1] and on ER [2] was less than 1 nM throughout. For the same compound, the Dmax on ER [1] and on ER [2] (maximal ER degradation) was not below 75% throughout. Besides, the IC50 on CRBN/DDB1 is 500 to 5000 nM; on ERα_LBD(GST), less than 5 nM.
With `O=C1CC[C@H](N2Cc3cc4c(cc3C2)N2CCN(C[C@@H]3COC5(CCN(c6ccc([C@H]7c8ccc(O)cc8OC[C@H]7c7ccccc7)cc6F)CC5)C3)C[C@H]2CO4)C(=O)N1` [Compound A161, (S)-3-((S)-3-(((R)-8-(2-fluoro-4-((3R,4S)-7-hydroxy-3-phenylchroman-4-yl)phenyl)-1-oxa-8-azaspiro[4.5]decan-3-yl)methyl)-1,2,3,4,4a, 5,8,10-octahydro-9H-pyrazino[1′,2′:4,5][1,4]oxazino[2,3-f]isoindol-9-yl)piperidine-2,6-dione], the DC50 on ER [1] and at ER [2] was less than 1 nM in each case. For the same compound, the Dmax was 50 to 75% on ER [1] and not below 75% on ER [2] (maximal ER degradation). Further, the figures for the IC50 on CRBN/DDB1 and in the assay on MCF-7 cells were 50 to 500 nM and less than 50 nM, respectively.
In the case of `O=C1CC[C@H](NC(=O)c2ccc3c(n2)OC[C@H]2CN(C[C@H]4COC5(CCN(c6ccc([C@@H]7c8ccc(O)cc8OC[C@@H]7c7ccccc7)cc6)CC5)C4)CCN32)C(=O)N1` [Compound A147, (R)-N-((S)-2,6-dioxopiperidin-3-yl)-3-(((S)-8-(4-((3S,4R)-7-hydroxy-3-phenylchroman-4-yl)phenyl)-1-oxa-8-azaspiro[4.5]decan-3-yl)methyl)-1,2,3,4,4a,5-hexahydropyrazino[1,2-d]pyrido[2,3-b][1,4]oxazine-8-carboxamide], the 50% degradation concentration (DC50) at ER [1] and on ER [2] was less than 1 nM in each case. Moreover, the maximal degradation (Dmax) on ER [1] and at ER [2] (maximal ER degradation) was 50 to 75% throughout. In addition, the IC50 is 500 to 5000 nM at CRBN/DDB1 and less than 5 nM at ERα_LBD(GST).
`O=C1CCC(N2C(=O)c3cc4c(cc3C2=O)CN(CC(=O)N2CCC3(CC2)CN(c2ccc([C@@H]5c6ccc(O)cc6OC[C@@H]5c5ccccc5)cc2)C3)C4)C(=O)N1` (single isomer, unassigned) [Compound A44]: the values for the DC50 at ER [1] and at ER [2] were 1 to 10 nM and less than 1 nM, respectively. In addition, the Dmax at ER [1] and on ER [2] (maximal ER degradation) was 50 to 75% each time. The IC50 is 50 to 500 nM on CRBN/DDB1 and less than 5 nM on ERα_LBD(GST).

As a reminder, the DC50 is the concentration giving 50% degradation. A high value points to degradation only at high concentration. By Dmax is commonly meant the largest share of the target that was removed. Lower therefore signals shallow degradation.

For the origin of these results see patent publication US20260000676A1, “CHROMAN DERIVATIVES AS ESTROGEN RECEPTOR DEGRADERS” (THE REGENTS OF THE UNIVERSITY OF MICHIGAN, priority 2022, published 2026).
